Patent US10695360B2, “Adiponectin secretion enhancer” (WASHINGTON UNIVERSITY, priority 2017, dated 2020)

How the values were obtained:
[1] = test system: ANKO mice (adipose tissue-specific NAMPT knockout mice); test: NAD+ precursor rescue experiments in ANKO mice (Example 5); type: in vivo, mouse
Text: To determine whether metabolic derangements depend on the defects in NAD+ biosynthesis in ANKO mice, we treated mice with NMN, a key NAD+ intermediate and the product of the NAMPT reaction (FIG. 6A). In the diagram, “NA” represents nicotinic acid, “NaMN” represents nicotinic acid mononucleotide, “NIC” represents nicotinamide, “NR” represents nicotinamide riboside, “Tip” represents tryptophan, and “NAPRT” represents nicotinate phosphoribosyl transferase. NMN is a product of an enzyme reaction mediated by NAMPT and is converted directly to NAD+. Nicotinic acid is a precursor in the NAPRT-dependent NAD+ biosynthesis pathway.
ANKO mice were generated by using adiponectin-Cre transgenic mice and floxed-Nampt mice as previously described (Noon et al., 2015). Mice were maintained on a standard chow diet (LabDiet 5053; LabDiet) ad libitum. For RSG rescue experiments, ANKO mice received a chow containing RSG (#71740; Cayman Chemical) at the approximate dose of 20 mg/kg body Weight/day soon after weaning for up to 7 weeks. For NAD+ precursor rescue experiments, we administered NMN (#44500900; Oriental Yeast) and NA (#72309; Sigma-Aldrich) in drinking water, at the approximate dose of 500 mg/kg of body weight, to ANKO mice soon after weaning for up to 2 months.
More specifically, drinking water containing NMN (500 mg/kg body weight/day) was administered to the female ANKO mice and metabolic parameters were investigated after administering NMN for 4 to 6 weeks. In the graphs, “NMN-ANKO” indicates the results for NMN-treated ANKO mice, “ANKO” indicates the results for NMN-untreated ANKO mice of the same age as the NMN-treated ANKO mice, and “flox/flox” indicates the results for the control mice (female Nampt-floxed (flox/flox) mice). All values in the graphs represent the mean ±SE. In the graphs, “*” indicates p<0.05, “**” indicates p<0.01, and “***” indicates p<0.001 (NMN-treated ANKO mice vs. NMN-untreated ANKO mice, Student's t-test). In addition, in the graphs, “a” indicates p<0.05 (NMN-treated ANKO mice vs. NMN-untreated ANKO mice, ANOVA), and “b” indicates p<0.05 (control mice vs. NMN-untreated ANKO mice, ANOVA).
FIG. 6B indicates the results of measuring […] levels in adipose tissue for female ANKO mice administered NMN for 4 to 6 weeks (500 mg/kg body weight day) and non-dosed female ANKO mice of the same age (per group, n=5 to 7). NAD+ levels were measured with an HPLC (high-performance liquid chromatography) system using a Supelco LC-18-T column (#58970-U, Sigma-Aldrich Corp.) (Yoon, et al., Cell Metabolism, 2015, Vol. 21, p. 706-717). FIG. 6C indicates the results of having carried out an insulin tolerance test (ITT), consisting of administering insulin and measuring blood glucose concentration over time, on NMN-treated mice following administration of NMN for 4 weeks (n=7) and non-dosed ANKO mice for which age has been aligned at 2 to 3 weeks (n=14), and control mice (n=8). The left graph in FIG. 6C indicates the results for changes in glucose concentration over time (insulin tolerance curve), while the graph on the right side of FIG. 6C indicates the results for the area under the curve (AUC) of glucose concentration.
The results for measuring plasma insulin concentrations for NMN-treated ANKO mice, NMN-untreated ANKO mice and control mice are shown in FIG. 6D, while the results of measuring plasma free fatty acid (FFA) concentrations are shown in FIG. 6E (per group, n=5 to 11). In addition, visceral adipose tissue was respectively sampled from NMN-treated ANKO mice and NMN-untreated ANKO mice followed by measurement of the levels of PPARγ (Ser273), CDK5 and nuclear protein acetylated lysine in the visceral adipose tissue (per group, n=3 to 4). […]

adiponectin [2] = test: Serum adiponectin levels in mice intraperitoneally administered β-NMN (Example 3); type: in vivo, mouse; conditions: C57BL/6J mice, females, intraperitoneal 625 and 1250 mg/kg/day, day 4
Protocol: A solution prepared by dissolving β-NMN (Oriental Yeast Co., Ltd.) in PBS (phosphate-buffered saline) was administered intraperitoneally in accordance with the method of Dr. Sinclair (Gomes, et al., Cell, 2013, Vol. 155, p. 1624-1638) and the method of Dr. Imai (Yoshino, et al., Cell Metabolism, 2011, Vol. 14, p. 528-536).
(§1) Measurement of adiponectin levels in the following experiments was carried out in the manner indicated below.
(§2) Anti-mouse adiponectin polyclonal antibody (Oriental Yeast Co., Ltd.) was adjusted to 10 μg/mL with PBS for use as primary antibody solution. […]
(§3) Moreover, 100 μl of substrate solution (Becton Dickinson & Co., TMB Substrate Reagent Set, #555214) were added to each well, and the plate covered with sealing film was incubated for 15 minutes at 25° C. After stopping the reaction by adding 100 μL of 2 N sulfuric acid to each well, the absorbance of each well was measured at a primary wavelength of 450 nm and a secondary wavelength of 570 nm with a plate reader (FLOUstar Optima, BMG LabTech Ltd.). Furthermore, since the mouse adiponectin polyclonal antibody used in ELISA cross-reacts with rat adiponectin, levels of rat adiponectin were measured as mouse adiponectin by using standard mouse adiponectin. […]
(§4) Mouse serum adiponectin levels were measured on day 4 from the start of administration. […]

adiponectin [3] = test: Serum adiponectin levels in mice orally administered β-NMN (Example 2); type: in vivo, mouse; conditions: C57BL/6N mice, females, oral 125 and 625 mg/kg/day, day 4
Protocol: (§5) A solution prepared by dissolving β-NMN (Oriental Yeast Co., Ltd.) in water for injection (Otsuka Pharmaceutical Co., Ltd.) or PBS (phosphate-buffered saline) was orally administered by gavage using a metal gastric tube (Fuchigami Kikai Co., Ltd.) attached to a polypropylene disposable syringe (Terumo Corp.).
as §1, §2, §3, §4

adiponectin [4] = test: Serum adiponectin levels in rats orally administered β-NMN (Example 1); type: in vivo, rat; conditions: CD rats, males and females, oral 250 and 1000 mg/kg/day, day 28
Protocol: as §5, §1, §2, §3
Rat serum adiponectin levels were measured on day 28 from the start of administration.

[5] = test system: adipocytes differentiated from mouse fibroblast 3T3-L1 cells; test: Adiponectin secreted from adipocytes differentiated from 3T3-L1 cells stimulated with β-NMN (Example 4); type: cell-based; conditions: 3T3-L1 adipocytes cultured with β-NMN for 7 days vs without
Protocol: 3T3-L1 cells were differentiated into adipocytes and then the cells were stimulated with β-NMN to measure the secreted amount of adiponectin. The 3T3-L1 cells were differentiated into adipocytes in the manner described below. First, 3T3-L1 cells were seeded in a 24-well plate at 5×10^4 cells/well followed by culturing for 2 to 3 days in culture medium (DMEM containing 10% fetal bovine serum (FBS)) at 37° C. in 5% CO2. Next, the culture medium was replaced with a first differentiation-inducing medium (containing 10 μM dexamethasone, 5 μM 3-isobutyl-1-methylxanthine (IBMX) and 10 μg/mL of insulin) followed by culturing for 2 days at 37° C. in 5% CO2. The medium was replaced with the second differentiation-inducing medium (containing 10 μg/mL of insulin) followed by culturing for 2 days at 37° C. in 5% CO2. Subsequently, the medium was twice replaced with culture medium every 2 to 3 days to differentiate the 3T3-L1 cells into mature adipocytes. 3T3-L1 adipocytes were cultured in the presence (“NMN addition”) or absence (“NMN non-addition”) of β-NMN for 7 days. The amount of adiponectin secreted into the culture supernatant was measured. The results of measurement of adiponectin levels in the culture supernatant are shown in. FIG. 4. […]

[6] = ANKO mice, NMN 500 mg/kg body weight/day, 4 to 6 weeks
[7] = NMN-treated vs untreated ANKO mice
[8] = visceral adipose tissue, NMN-treated vs untreated ANKO mice

Structure (SMILES)	metabolic disorders of ANKO mice ([1]; nicotinic acid 500 mg/kg body weight/day, 5- to 7-week administration)	serum adiponectin levels (adiponectin [2])	serum adiponectin levels (adiponectin [3])	insulin sensitivity (insulin tolerance test) ([1]; ANKO mice, NMN 500 mg/kg body weight/day for 4 weeks, vs age-matched untreated ANKO mice)	plasma FFA concentrations [1, 6]	plasma insulin concentrations [1, 6]	plasma concentrations of adiponectin [1, 7]	plasma concentrations of adipsin [1, 7]	adipose tissue NAD+ concentrations ([1]; female ANKO mice, NMN 500 mg/kg body weight/day in drinking water, 4 to 6 weeks)	Adipose tissue gene expression of adiponectin and adipsin [1, 8]	global nuclear lysine acetylation [1, 8]	phosphorylation of CDK5 in VAT [1, 8]	phosphorylation of PPARγ (Ser273) in VAT [1, 8]	metabolic disorders of ANKO mice ([1]; β-NMN 500 mg/kg body weight/day in drinking water, 4 to 6 weeks)	serum adiponectin levels (adiponectin [4])	adiponectin levels in the culture supernatant [5]
O=C(O)c1cccnc1 [nicotinic acid, reference compound]	improved															
NC(=O)c1ccc[n+]([C@@H]2O[C@H](COP(=O)([O-])O)C(O)[C@H]2O)c1 (stereo partly drawn) [β-NMN, Nicotinamide mononucleotide]		increased serum adiponectin levels dose-dependently	increased serum adiponectin levels dose-dependently	improved	normalized	normalized	restored	restored	significantly increased	restored	reduced	decreased	decreased	improved	increased serum adiponectin levels dose-dependently	higher
